ChEMBL document CHEMBL5465560, “Selectivity Literature for EUbOPEN Chemogenomic Library” (2024)

How the values were obtained:
[1] = target: Tyrosine-protein kinase SYK (Homo sapiens, UniProt P43405); details: at 10 µM
[2] = target: Ribosomal protein S6 kinase alpha-5 (Homo sapiens) (UniProt O75582); test: Selectivity interaction (Kinase panel (Invitrogen)) EUB0000639a RPS6KA5; details: at 200 nM
[3] = target: T1, Tyrosine-protein kinase ZAP-70 (Homo sapiens) (UniProt P43403); test: Selectivity interaction (KinomeScan (DiscoverX)) EUB0000695a ZAP70; details: at 100 nM
T1 sequence (whole entry): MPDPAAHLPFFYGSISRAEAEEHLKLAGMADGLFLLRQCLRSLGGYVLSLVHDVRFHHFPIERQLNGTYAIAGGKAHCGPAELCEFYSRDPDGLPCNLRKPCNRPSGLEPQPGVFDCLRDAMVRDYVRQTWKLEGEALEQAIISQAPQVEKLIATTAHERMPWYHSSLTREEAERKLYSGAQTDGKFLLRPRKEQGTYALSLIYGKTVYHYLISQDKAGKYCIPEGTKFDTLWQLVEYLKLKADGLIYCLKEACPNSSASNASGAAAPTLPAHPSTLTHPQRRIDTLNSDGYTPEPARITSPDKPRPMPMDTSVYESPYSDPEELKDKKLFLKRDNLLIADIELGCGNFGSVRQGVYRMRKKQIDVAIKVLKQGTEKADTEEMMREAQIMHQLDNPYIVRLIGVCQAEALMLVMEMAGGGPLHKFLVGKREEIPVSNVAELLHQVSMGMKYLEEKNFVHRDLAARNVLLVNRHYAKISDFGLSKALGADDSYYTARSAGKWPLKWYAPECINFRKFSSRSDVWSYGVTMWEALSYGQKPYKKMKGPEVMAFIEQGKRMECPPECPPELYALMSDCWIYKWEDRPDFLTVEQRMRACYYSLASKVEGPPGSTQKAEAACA

[4] = target: T2, Ephrin type-A receptor 6 (Homo sapiens) (UniProt Q9UF33); test: Selectivity interaction (KinomeScan (DiscoverX)) EUB0000595a EPHA6; details: at 10 µM
T2 sequence (whole entry): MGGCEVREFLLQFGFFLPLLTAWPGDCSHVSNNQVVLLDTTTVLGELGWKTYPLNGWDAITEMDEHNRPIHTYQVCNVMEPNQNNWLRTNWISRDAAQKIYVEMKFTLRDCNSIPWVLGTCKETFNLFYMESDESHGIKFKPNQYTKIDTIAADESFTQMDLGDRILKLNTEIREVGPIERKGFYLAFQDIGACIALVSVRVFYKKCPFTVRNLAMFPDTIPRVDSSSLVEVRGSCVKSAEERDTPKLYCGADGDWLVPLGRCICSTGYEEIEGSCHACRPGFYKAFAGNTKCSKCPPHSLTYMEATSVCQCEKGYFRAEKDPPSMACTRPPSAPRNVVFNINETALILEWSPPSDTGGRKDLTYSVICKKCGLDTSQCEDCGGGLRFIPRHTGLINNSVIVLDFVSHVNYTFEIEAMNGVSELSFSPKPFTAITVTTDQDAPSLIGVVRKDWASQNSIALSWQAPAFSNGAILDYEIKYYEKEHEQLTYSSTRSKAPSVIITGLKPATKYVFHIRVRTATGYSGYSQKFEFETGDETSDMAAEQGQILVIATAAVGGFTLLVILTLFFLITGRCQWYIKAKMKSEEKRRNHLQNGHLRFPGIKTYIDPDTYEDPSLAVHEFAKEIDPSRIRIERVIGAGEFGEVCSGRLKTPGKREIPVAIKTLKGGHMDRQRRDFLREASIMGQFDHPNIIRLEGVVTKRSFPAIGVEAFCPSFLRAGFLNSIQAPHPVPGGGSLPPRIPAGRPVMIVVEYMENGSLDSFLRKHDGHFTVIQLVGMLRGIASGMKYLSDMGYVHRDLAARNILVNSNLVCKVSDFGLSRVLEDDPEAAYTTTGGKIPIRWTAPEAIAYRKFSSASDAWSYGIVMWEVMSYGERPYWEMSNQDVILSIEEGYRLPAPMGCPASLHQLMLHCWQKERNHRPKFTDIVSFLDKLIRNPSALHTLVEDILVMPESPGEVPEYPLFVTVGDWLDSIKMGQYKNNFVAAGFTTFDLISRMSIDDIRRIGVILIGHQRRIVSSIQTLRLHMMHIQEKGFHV

[5] = target: Ribosomal protein S6 kinase alpha-6 (Homo sapiens, UniProt Q9UK32); test: Selectivity interaction (KinomeScan (DiscoverX)) EUB0000595a RPS6KA6; details: at 10 µM
[6] = target: Serine/threonine-protein kinase 38-like (Homo sapiens) (UniProt Q9Y2H1); test: Selectivity interaction (Kinase panel (KiNativ target engagement assay in Jurkat cells)) EUB0001635a STK38L; type: cell-based; details: Selectivity number of off-targets 0.0, Selectivity number of targets 233.0, Source Knowledge https://www.sciencedirect.com/science/article/pii/S2451945619300674?via%3Dihub, at 1 µM
[7] = target: Tyrosine-protein kinase JAK1 (Homo sapiens, UniProt P23458); test: Selectivity interaction (Kinase panel (Carna Biosciences)) EUB0001542aTs JAK1; details: at 1 µM
[8] = target: Calcium/calmodulin-dependent protein kinase kinase 1 (Homo sapiens) (UniProt Q8N5S9); test: Selectivity interaction (KinomeScan (DiscoverX)) EUB0001619a CAMKK1; details: at 1 µM
Calcium/calmodulin-dependent protein kinase kinase 1 (Homo sapiens), sequence (Q8N5S9 whole entry, looked up): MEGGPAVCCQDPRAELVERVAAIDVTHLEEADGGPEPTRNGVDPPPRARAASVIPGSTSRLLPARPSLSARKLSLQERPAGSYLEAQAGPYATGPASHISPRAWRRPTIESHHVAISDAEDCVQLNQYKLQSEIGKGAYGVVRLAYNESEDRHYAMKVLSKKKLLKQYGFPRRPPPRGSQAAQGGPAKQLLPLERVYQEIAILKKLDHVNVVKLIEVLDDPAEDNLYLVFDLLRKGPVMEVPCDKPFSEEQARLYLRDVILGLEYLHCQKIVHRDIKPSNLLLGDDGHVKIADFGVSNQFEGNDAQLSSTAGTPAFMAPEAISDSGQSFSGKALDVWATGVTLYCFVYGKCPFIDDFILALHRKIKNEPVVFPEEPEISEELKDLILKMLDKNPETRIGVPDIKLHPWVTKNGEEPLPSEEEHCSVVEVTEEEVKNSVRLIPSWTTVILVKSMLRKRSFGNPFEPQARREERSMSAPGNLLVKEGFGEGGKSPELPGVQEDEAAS

Ribosomal protein S6 kinase alpha-5 (Homo sapiens), sequence (O75582 whole entry, looked up): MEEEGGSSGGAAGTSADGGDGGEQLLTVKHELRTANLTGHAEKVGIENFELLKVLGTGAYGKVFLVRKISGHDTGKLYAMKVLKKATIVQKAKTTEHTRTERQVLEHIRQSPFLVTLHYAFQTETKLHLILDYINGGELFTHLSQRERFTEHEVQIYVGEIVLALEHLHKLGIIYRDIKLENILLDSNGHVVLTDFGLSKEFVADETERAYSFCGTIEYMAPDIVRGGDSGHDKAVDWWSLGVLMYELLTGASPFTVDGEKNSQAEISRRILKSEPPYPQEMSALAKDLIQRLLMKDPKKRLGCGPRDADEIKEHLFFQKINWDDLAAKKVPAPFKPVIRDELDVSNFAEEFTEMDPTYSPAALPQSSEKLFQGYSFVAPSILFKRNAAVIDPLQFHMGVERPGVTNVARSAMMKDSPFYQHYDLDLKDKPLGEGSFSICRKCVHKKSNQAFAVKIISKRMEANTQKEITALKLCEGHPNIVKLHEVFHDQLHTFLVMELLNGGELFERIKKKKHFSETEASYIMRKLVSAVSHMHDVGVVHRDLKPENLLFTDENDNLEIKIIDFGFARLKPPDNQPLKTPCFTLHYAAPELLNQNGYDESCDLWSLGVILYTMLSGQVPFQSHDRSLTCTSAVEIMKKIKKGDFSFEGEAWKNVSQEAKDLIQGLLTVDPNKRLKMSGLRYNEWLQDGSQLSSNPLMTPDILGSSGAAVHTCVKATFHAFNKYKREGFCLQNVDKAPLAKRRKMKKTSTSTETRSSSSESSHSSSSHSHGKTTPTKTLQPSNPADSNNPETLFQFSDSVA
Tyrosine-protein kinase JAK1, sequence (P23458 whole entry): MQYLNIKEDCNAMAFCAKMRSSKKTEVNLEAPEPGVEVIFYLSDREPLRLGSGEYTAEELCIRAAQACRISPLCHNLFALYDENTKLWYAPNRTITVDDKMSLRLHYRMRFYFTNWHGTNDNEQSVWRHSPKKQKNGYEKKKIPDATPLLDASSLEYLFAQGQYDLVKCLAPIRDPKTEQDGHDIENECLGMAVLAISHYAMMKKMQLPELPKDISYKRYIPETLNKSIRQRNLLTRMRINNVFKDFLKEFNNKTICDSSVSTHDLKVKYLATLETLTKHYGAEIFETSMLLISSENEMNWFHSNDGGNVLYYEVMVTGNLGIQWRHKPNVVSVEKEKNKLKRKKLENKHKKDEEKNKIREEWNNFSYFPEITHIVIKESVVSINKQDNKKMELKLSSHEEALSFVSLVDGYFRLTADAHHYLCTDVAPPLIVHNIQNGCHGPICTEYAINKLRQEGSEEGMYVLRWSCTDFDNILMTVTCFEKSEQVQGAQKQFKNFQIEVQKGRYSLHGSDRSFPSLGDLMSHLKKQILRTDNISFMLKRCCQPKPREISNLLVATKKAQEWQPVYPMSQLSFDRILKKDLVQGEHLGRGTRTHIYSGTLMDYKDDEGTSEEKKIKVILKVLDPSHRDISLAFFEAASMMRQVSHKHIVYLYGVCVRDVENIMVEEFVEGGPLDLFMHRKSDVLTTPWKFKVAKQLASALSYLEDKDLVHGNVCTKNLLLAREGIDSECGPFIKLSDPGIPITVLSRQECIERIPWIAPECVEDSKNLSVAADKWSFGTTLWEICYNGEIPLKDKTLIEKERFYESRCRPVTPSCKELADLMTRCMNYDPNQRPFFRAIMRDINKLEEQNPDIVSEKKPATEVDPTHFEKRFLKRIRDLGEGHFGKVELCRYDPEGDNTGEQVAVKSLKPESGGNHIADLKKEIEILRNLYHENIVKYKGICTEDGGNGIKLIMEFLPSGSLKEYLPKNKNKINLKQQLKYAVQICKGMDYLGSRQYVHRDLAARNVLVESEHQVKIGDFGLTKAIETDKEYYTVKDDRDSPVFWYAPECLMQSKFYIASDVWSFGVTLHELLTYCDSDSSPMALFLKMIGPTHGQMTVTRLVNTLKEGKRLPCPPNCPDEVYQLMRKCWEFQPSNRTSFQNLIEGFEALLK
Serine/threonine-protein kinase 38-like (Homo sapiens), sequence (Q9Y2H1 2-464 limits assumed): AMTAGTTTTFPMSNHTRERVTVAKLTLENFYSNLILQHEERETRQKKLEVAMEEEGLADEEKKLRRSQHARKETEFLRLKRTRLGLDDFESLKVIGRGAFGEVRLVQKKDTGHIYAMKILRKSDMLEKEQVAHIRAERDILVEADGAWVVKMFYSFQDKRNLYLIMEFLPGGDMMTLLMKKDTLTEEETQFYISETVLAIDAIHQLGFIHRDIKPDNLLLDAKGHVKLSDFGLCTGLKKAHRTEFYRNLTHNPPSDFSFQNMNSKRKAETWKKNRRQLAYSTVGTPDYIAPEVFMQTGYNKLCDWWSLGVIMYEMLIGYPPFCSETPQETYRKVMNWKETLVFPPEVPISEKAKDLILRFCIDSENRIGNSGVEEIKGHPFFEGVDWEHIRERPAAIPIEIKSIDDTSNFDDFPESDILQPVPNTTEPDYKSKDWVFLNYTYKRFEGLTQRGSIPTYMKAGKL
Ribosomal protein S6 kinase alpha-6, sequence (Q9UK32 whole entry): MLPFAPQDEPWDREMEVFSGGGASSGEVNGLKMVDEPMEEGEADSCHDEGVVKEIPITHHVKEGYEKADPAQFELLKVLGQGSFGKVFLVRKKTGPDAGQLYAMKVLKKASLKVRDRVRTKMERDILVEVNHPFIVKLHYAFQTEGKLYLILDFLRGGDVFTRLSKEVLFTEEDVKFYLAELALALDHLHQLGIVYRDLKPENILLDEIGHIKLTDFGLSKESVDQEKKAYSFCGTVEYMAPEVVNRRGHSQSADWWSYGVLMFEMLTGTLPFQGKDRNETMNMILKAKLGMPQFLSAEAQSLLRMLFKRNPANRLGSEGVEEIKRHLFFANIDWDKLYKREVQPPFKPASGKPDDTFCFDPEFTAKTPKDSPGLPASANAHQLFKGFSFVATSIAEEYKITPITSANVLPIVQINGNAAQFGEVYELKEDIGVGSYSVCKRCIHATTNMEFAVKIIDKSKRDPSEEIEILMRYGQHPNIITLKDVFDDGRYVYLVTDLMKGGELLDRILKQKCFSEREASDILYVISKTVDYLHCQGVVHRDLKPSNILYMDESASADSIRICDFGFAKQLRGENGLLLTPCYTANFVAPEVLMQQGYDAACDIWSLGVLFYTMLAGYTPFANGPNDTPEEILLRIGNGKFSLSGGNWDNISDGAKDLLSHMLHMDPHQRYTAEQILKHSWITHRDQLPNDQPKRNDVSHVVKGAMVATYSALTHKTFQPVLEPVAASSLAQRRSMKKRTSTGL

CCN(CC)CCCCNc1ncc2cc(-c3cc(OC)cc(OC)c3)c(NC(=O)NC(C)(C)C)nc2n1
% of control [1]: 100%

CC[C@@H]1[C@H](F)C(=O)N[C@@H]1COc1nccc2cc(C(N)=O)c(OC)cc12 [ZIMLOVISERTIB]
% of inhibition [2]: 0.449%

Cc1cc(F)c(C(=O)Nc2cccc(-c3nncn3C(C)C)n2)cc1-n1cnc(C2CC2)c1
% of control [3]: 100%

COCC(=O)NC/C=C/c1ccc2ncnc(Nc3ccc(Oc4ccc(C)nc4)c(C)c3)c2c1 [CP-724714]
% of control [4]: 96%
% of control [5]: 88%

C=CC(=O)Nc1ccc(C(=O)Nc2[nH]nc3c2CN(C(=O)N[C@H](CN(C)C)c2ccccc2)C3(C)C)cc1
% of engagement [6]: -0.3%

Cn1cc(Nc2nccc(N3CC4CCC(C3)N4C(=O)[C@@H]3CC3(F)F)n2)cn1
% of inhibition [7]: 101%

N#Cc1cccc(-c2c[nH]c3ncnc(N4CCOCC4)c23)c1
% of control [8]: 100%
